The values that follow come from ChEMBL document CHEMBL1201862, “PubChem BioAssay data set” (2004).

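Assay format: 96-well plates, 48-hour exposure. At the GI50, growth is halved.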 The source made the active and inactive calls. Cut-off read from the data, not from the text of the source: active = GI50 up to about 1.1 µM and inactive = higher.

Some test systems named below: KM-20L2; IGROV-1; UACC-62; U-251; M14; RXF 393; UACC-257; SNB-75; OVCAR-8; HCT-15; HCT-116; SNB-19; 786-0; SF-295; SF-539.
Holding throughout (assay): DTP human tumour cell line panel, 48 h

As usually defined, the GI50 is the concentration at which growth is held to half of that of the control. Turning to `COC(=O)N/N=C(\c1nc2ccc(Cl)cc2nc1O)C(O)c1ccc([N+](=O)[O-])cc1` (configuration not stated), the GI50 in the assay with KM-20L2, in the assay with IGROV-1, with UACC-62, in the assay with U-251, in the assay on M14 and in the assay with RXF 393 was > 100 µM (inactive) throughout. Also, the GI50 in the assay on UACC-257 was > 100 µM (inactive); in the assay with SNB-75, > 100 µM (inactive); in the assay with OVCAR-8, > 100 µM (inactive); with HCT-15, above 100 µM; in the assay on HCT-116 it was > 100 µM (inactive); with SNB-19, > 100 µM (inactive). Besides, the GI50 with 786-0, in the assay with SF-295 and in the assay with SF-539 was > 100 µM (inactive) throughout.

With `COC(=O)c1oc([N+](=O)[O-])c(-c2ccccc2)c1-c1ccccc1`, the GI50 in the assay on KM-20L2 was > 100 µM (inactive); with IGROV-1, > 100 µM (inactive); in the assay on UACC-62 it was 67 µM (inactive); with U-251, > 100 µM (inactive); with M14, > 100 µM (inactive); with UACC-257, > 100 µM (inactive). The GI50 with SNB-75, in the assay with OVCAR-8, in the assay on HCT-116, with SNB-19, in the assay on 786-0 and in the assay with SF-295 was > 100 µM (inactive) each time. Also, the GI50 in the assay on SF-539 was > 100 µM (inactive).

As for `CCOC(=O)c1csc(CCCCCCc2nc(C(=O)OCC)cs2)n1`, the GI50 was > 100 µM (inactive) with KM-20L2; > 100 µM (inactive) in the assay on IGROV-1; > 83.8 µM (inactive) in the assay with UACC-62; 24 µM (inactive) in the assay on U-251; > 100 µM (inactive) in the assay on M14; 31.6 µM (inactive) in the assay on RXF 393. Besides, the GI50 in the assay with UACC-257 is 34.8 µM (inactive); in the assay on SNB-75 it was 21.1 µM (inactive); with OVCAR-8 it was 31.8 µM (inactive); in the assay with HCT-15, above 60.5 µM; in the assay with HCT-116 it was 35.9 µM (inactive); in the assay with SNB-19, > 76.4 µM (inactive). Besides, the GI50 in the assay on 786-0 was 33.2 µM (inactive); with SF-295, 52.2 µM (inactive); with SF-539, > 58.3 µM (inactive).

Turning to `COc1ccc(/C=C/C(=O)c2sc(-c3cccnc3)nc2C)cc1`, the GI50 in the assay on KM-20L2 was 56.4 µM (inactive); in the assay on IGROV-1 it was 60.1 µM (inactive); in the assay on UACC-62, 46.3 µM (inactive); with U-251 it was 58.3 µM (inactive); with RXF 393, 26.3 µM (inactive); in the assay with UACC-257, > 100 µM (inactive). The GI50 is 30.1 µM (inactive) in the assay on SNB-75; 35.7 µM (inactive) in the assay on OVCAR-8; 45.3 µM in the assay with HCT-15; 41.6 µM (inactive) in the assay on 786-0; 35.8 µM (inactive) in the assay with SF-295; 21.1 µM (inactive) with SF-539.

On to `Cc1ccccc1NC(=O)C(=O)C(C#N)c1ccccc1C` (configuration not stated), for which the GI50 with KM-20L2, in the assay with IGROV-1, with UACC-62, with U-251, in the assay on M14 and in the assay with RXF 393 was > 100 µM (inactive) in each case. Moreover, the GI50 with UACC-257 was > 100 µM (inactive); in the assay with SNB-75 it was > 100 µM (inactive); in the assay on OVCAR-8 it was > 100 µM (inactive); with HCT-15, above 100 µM; in the assay with HCT-116 it was > 100 µM (inactive); in the assay on SNB-19 it was > 100 µM (inactive). Also, the GI50 in the assay with 786-0, in the assay on SF-295 and in the assay with SF-539 was > 100 µM (inactive) throughout.

On to `O=C1C2=C(c3ccccc31)C(c1ccccc1Cl)NC(S)=N2` (configuration not stated), for which the GI50 with KM-20L2 was 74.3 µM (inactive); with IGROV-1 it was 56.8 µM (inactive); in the assay on UACC-62, 34.6 µM (inactive); with U-251 it was 77.6 µM (inactive); in the assay with M14, 51.8 µM (inactive); with UACC-257, 51.3 µM (inactive). For the same compound, the GI50 with SNB-75 is 26.9 µM (inactive); with OVCAR-8, 53 µM (inactive); in the assay with HCT-15, 59.2 µM; with HCT-116, 44.9 µM (inactive); with SNB-19 it was 52.1 µM (inactive); in the assay on 786-0, > 100 µM (inactive). Besides, the figures for the GI50 in the assay with SF-295 and in the assay with SF-539 were 51.1 µM (inactive) and 97.1 µM (inactive), respectively.

Take `O=C(O)[C@H](NS(=O)(=O)c1ccc2ccccc2c1)c1ccccc1`: the GI50 in the assay with KM-20L2 was > 100 µM (inactive); in the assay on IGROV-1, > 100 µM (inactive); with UACC-62, > 100 µM (inactive); in the assay with U-251, > 100 µM (inactive); in the assay on M14, > 100 µM (inactive); with RXF 393, 20.6 µM (inactive). Besides, the GI50 with UACC-257 is > 100 µM (inactive); with SNB-75, > 100 µM (inactive); in the assay with HCT-15, above 100 µM; in the assay with SNB-19, > 100 µM (inactive); in the assay on 786-0, > 100 µM (inactive); in the assay on SF-539, > 100 µM (inactive).

As to `Cc1c2c(cc3c(=O)ccn(CCN(C)C)c13)c(=O)ccn2CCN(C)C`, the GI50 was 5.04 µM (inactive) with KM-20L2; 12.4 µM (inactive) in the assay with IGROV-1; 17.2 µM (inactive) in the assay on UACC-62; 8.34 µM (inactive) in the assay on U-251; 12.5 µM (inactive) in the assay on M14; 14.2 µM (inactive) in the assay with RXF 393. For the same compound, the GI50 in the assay with UACC-257 is 18.3 µM (inactive); in the assay on SNB-75, 11.9 µM (inactive); in the assay on OVCAR-8 it was 4.76 µM (inactive); in the assay on HCT-15, 4.5 µM; in the assay with HCT-116, 6.35 µM (inactive); in the assay on SNB-19, 8.34 µM (inactive). Further, the figures for the GI50 in the assay with 786-0, in the assay with SF-295 and in the assay on SF-539 were 4.13 µM (inactive), 7.31 µM (inactive) and 15 µM (inactive), respectively.

As for `CC1(C)Oc2ccccc2N2O[C@@H]3C(=O)N(c4ccccc4)C(=O)[C@@H]3C21c1ccccc1` (some centres not stated), the GI50 in the assay with KM-20L2 was 51.4 µM (inactive); in the assay with IGROV-1 it was 47.5 µM (inactive); in the assay on UACC-62, 33.1 µM (inactive); in the assay with U-251, 25 µM (inactive); with M14, 20.7 µM (inactive); in the assay on RXF 393, 23.7 µM (inactive). Besides, the GI50 in the assay on UACC-257 was 34 µM (inactive); in the assay on SNB-75, 17.7 µM (inactive); with OVCAR-8 it was > 10 µM (inactive); with HCT-116 it was 20.8 µM (inactive); in the assay on SNB-19, 19.7 µM (inactive); in the assay on 786-0, 16.6 µM (inactive). For the same compound, the figures for the GI50 with SF-295 and in the assay with SF-539 were 15.7 µM (inactive) and 17.3 µM (inactive), respectively.

`CN(C)C(=S)/N=c1\ss/c(=N\C(=S)N(C)C)n1-c1ccc(Cl)cc1`: the GI50 with KM-20L2, with IGROV-1, in the assay with UACC-62, in the assay with U-251, in the assay with M14 and in the assay with RXF 393 was > 100 µM (inactive) each time. Moreover, the GI50 in the assay on UACC-257 was > 100 µM (inactive); in the assay with SNB-75, 3.33 µM (inactive); with OVCAR-8, > 100 µM (inactive); in the assay with HCT-15, above 100 µM; in the assay with HCT-116 it was > 100 µM (inactive); with SNB-19, > 100 µM (inactive). The GI50 with 786-0, with SF-295 and with SF-539 was > 100 µM (inactive) each time.

Regarding `N#Cc1c(N)c(C(=O)O)nn(-c2cccc(C(F)(F)F)c2)c1=O`, the GI50 is > 100 µM (inactive) with KM-20L2; > 100 µM (inactive) in the assay on IGROV-1; 76.9 µM (inactive) with UACC-62; > 100 µM (inactive) in the assay with U-251; > 100 µM (inactive) in the assay with M14; 52.5 µM (inactive) with RXF 393. The GI50 with SNB-75 was 14 µM (inactive); with OVCAR-8 it was > 100 µM (inactive); with HCT-15 it was 95.1 µM; in the assay with HCT-116, > 100 µM (inactive); in the assay on SNB-19, > 100 µM (inactive); in the assay on 786-0 it was > 100 µM (inactive). Also, the GI50 in the assay on SF-295 and in the assay with SF-539 was > 100 µM (inactive) throughout.

Consider `O=S1OC2(c3ccccc3-c3ccccc32)c2ccccc21` (configuration not stated), for which the GI50 was > 100 µM (inactive) in the assay with KM-20L2; > 100 µM (inactive) with IGROV-1; > 100 µM (inactive) with UACC-62; > 100 µM (inactive) in the assay on U-251; > 100 µM (inactive) in the assay on M14; 53 µM (inactive) with RXF 393. Moreover, the GI50 in the assay on UACC-257 was > 100 µM (inactive); with SNB-75 it was > 100 µM (inactive); in the assay on OVCAR-8, > 100 µM (inactive); in the assay on HCT-15 it was 86.3 µM; in the assay on HCT-116, > 100 µM (inactive); with SNB-19, > 100 µM (inactive). The GI50 in the assay with 786-0, in the assay with SF-295 and with SF-539 was > 100 µM (inactive) throughout.

Take `CNc1ccc(/C=C2\C=Cc3ccccc32)cc1`: the GI50 is 19.1 µM (inactive) with KM-20L2; 24.2 µM (inactive) with IGROV-1; 20.1 µM (inactive) with UACC-62; 32.4 µM (inactive) with U-251; 16.3 µM (inactive) in the assay on M14; 20.8 µM (inactive) in the assay with RXF 393. In addition, the GI50 is 23.4 µM (inactive) with UACC-257; 64.3 µM (inactive) in the assay on OVCAR-8; 20.9 µM in the assay with HCT-15; 33.1 µM (inactive) with HCT-116; 61.4 µM (inactive) in the assay on SNB-19; 31.5 µM (inactive) in the assay with 786-0. Moreover, the figures for the GI50 in the assay with SF-295 and in the assay with SF-539 were 31.3 µM (inactive) and 93.3 µM (inactive), respectively.

Regarding `N#CCC(=O)N/N=C(\C(=O)Nc1ccc(Cl)c(Cl)c1)C1CN(c2ccccc2)N=C1N` (configuration not stated), the GI50 in the assay on KM-20L2, in the assay with IGROV-1, in the assay with UACC-62, in the assay with U-251, in the assay on M14 and in the assay on RXF 393 was > 100 µM (inactive) throughout. Besides, the GI50 was > 100 µM (inactive) in the assay on UACC-257; > 100 µM (inactive) in the assay on SNB-75; > 100 µM (inactive) in the assay on OVCAR-8; above 100 µM in the assay on HCT-15; > 100 µM (inactive) in the assay on HCT-116; > 100 µM (inactive) in the assay on 786-0. Besides, the GI50 with SF-295 and with SF-539 was > 100 µM (inactive) throughout.
